The record followed here is patent US20090215743A1, “Tricyclic benzazepine derivatives and their use” (Bayer HealthCare AG, priority 2004, published 2009).

The experiment has as its system sterol biosynthesis. In words: Inhibition of squalene and cholesterol synthesis in the liver of mice (sterol biosynthesis). The experiment is classed as in vivo. The following applies: male NMRI mice, 3 mg/kg p.o., 14C-mevalonolactone, liver lipid fraction. How it is done: Male NMRI mice are kept on normal rodent diet (NAFAG 3883) in metabolism cages. The light/dark cycle comprises 12 hours, from 06.00 to 18.00 and from 18.00 to 06.00. The animals are employed with a body weight of between 25 g and 40 g in groups of 8-10 animals in the experiments. Feed and drinking water are available to the animals ad libitum.
The substances are, according to their solubility, administered orally in aqueous tragacanth suspension (0.5%) or in Solutol HS15/saline solution (20:80) by gavage in a volume of 10 ml/kg of body weight or else injected subcutaneously in Solutol HS15/saline solution (20:80) or DMSO/saline solution (20:80). The corresponding control groups receive only the corresponding formulating agent without active substance. One or two hours after administration of the substance, the animals receive intraperitoneal injections of radiolabelled ^14C-mevalonolactone. One or two hours after the ^14C-mevalonolactone injection, or 24 hours after the administration of substance, the animals are sacrificed, the abdominal cavity is opened, and liver tissue is removed. Immediately after removal, the tissue is dried on the surface, weighed and homogenized in isopropanol. The further processing and extraction of the synthesized squalene and its secondary products takes place by a method of I. Duncan et al. (J. Chromatogr. 1979, 162), modified by H. Bischoff et al. (Atherosclerosis 1997, 135).
The extracted lipid fraction is taken up in 1 ml of isopropanol, transferred into scintillation vials, made up with 15 ml of Ultima Gold® scintillation fluid (Packard) and counted in a liquid scintillation counter (Beckmann Coulter LS 6500).
After calculation of the specific ^14C activity of the lipid fraction (dpm/g of liver tissue), the rate of synthesis of the radiolabelled ^14C squalene and of the ^14C secondary metabolites of the animals treated with the active substance is compared with the rate of synthesis of the radiolabelled ^14C squalene and of the ^14C secondary metabolites of the control animals treated only with formulating agent. A reduction in the rate of synthesis by ≧30% compared with the rate of synthesis for the control animals (=100%) is regarded as pharmacologically active if the statistical assessment by Student's t test results in a p value of <0.05.
`COc1cccc(C2OC(CC(=O)O)c3nnc(C(C)C)n3-c3ccc(Cl)cc32)c1OC` (racemic) [Example 3, [8-Chloro-6-(2,3-dimethoxyphenyl)-1-isopropyl-4H,6H-[1,2,4]triazolo[4,3-a][4,1]benzoxazepin-4-yl]acetic acid]: the “Inhibition relative to the untreated control group” value was 81%.

`COc1cccc(C2OC(CC(=O)N3CCN(C(C)=O)CC3)c3nnc(C(C)C)n3-c3ccc(Cl)cc32)c1OC` (stereo not shown) [Example 50, 4-[2-(4-Acetylpiperazin-1-yl)-2-oxoethyl]-8-chloro-6-(2,3-dimethoxyphenyl)-1-isopropyl-4H,6H-[1,2,4]triazolo[4,3-a][4,1]benzoxazepine]: the “Inhibition relative to the untreated control group” value is listed as 75%.

On to `COc1cccc(C2OC(CC(=O)N3CCSC3)c3nnc(C(C)C)n3-c3ccc(Cl)cc32)c1OC` (stereo not shown) [Example 41, 8-Chloro-6-(2,3-dimethoxyphenyl)-1-isopropyl-4-[2-oxo-2-(1,3-thiazolidin-3-yl)ethyl]-4H,6H-[1,2,4]triazolo[4,3-a][4,1]benzoxazepine], for which the “Inhibition relative to the untreated control group” value worked out at 81%.

Regarding `COc1cccc(C2OC(CC(=O)O)c3nnc(C(C)(C)CO)n3-c3ccc(Cl)cc32)c1OC` (racemic) [Example 62-2, [8-Chloro-6-(2,3-dimethoxyphenyl)-1-(2-hydroxy-1,1-dimethylethyl)-4H,6H-[1,2,4]triazolo[4,3-a]-[4,1]benzoxazepin-4-yl]acetic acid], the “Inhibition relative to the untreated control group” value came to 77%.
